These results are taken from PubChem BioAssay AID1996.

In general, kinetic solubility refers to the concentration staying in solution when a stock, usually in DMSO, is diluted into the medium.

The structures appear in SMILES notation. In brackets after ≈: the same amount, converted by molar mass.

For this data set the following is noted: buffer; pH 7.4; 200.0 µM.
The molecule `CCOC(=S)N/C(=N\S(C)(=O)=O)c1ccccc1` came in with a solubility (kinetic) greater than 43 µg/mL.

`CN(C)/C=C/C(=O)c1ccc(F)cc1F` yielded a solubility (kinetic) greater than 31.7 µg/mL.

In turn, `COCCn1cnc2c1c(=O)[nH]c(=O)n2Cc1ccccc1` displayed a kinetic solubility of 37 µg/mL (≈ 123 µM).

In turn, `O=C(CSc1ncccn1)Nc1cccc(S(=O)(=O)N2CCOCC2)c1` had a kinetic solubility greater than 59.2 µg/mL.

As to `CC(=O)Nc1c2c(nn1-c1cccc(Cl)c1)CS(=O)(=O)C2`, the solubility (kinetic) is greater than 48.9 µg/mL.

In turn, `N#CC(C#N)=C(N)Nc1cccc(Cl)c1` displayed a kinetic solubility of 30.7 µg/mL (≈ 140 µM).

`Cn1c(CCC(=O)O)nc2cc(S(=O)(=O)N3CCCC3)ccc21` displayed a kinetic solubility greater than 50.6 µg/mL.

Molecule `COc1ccc(/C=C/C(=O)N2CCCc3ccccc32)c(OC)c1` gave a solubility (kinetic) of 6.7 µg/mL (≈ 20.7 µM).

Molecule `COc1ccc(-n2c(=S)[nH]c3ncccc3c2=O)cc1` showed a kinetic solubility of 1.5 µg/mL (≈ 5.26 µM).

Turning to `COc1cc2ccccc2cc1C(=O)Nc1ccncc1`, the kinetic solubility is 38.6 µg/mL (≈ 139 µM).

Turning to `N#Cc1ccsc1NC(=O)c1cccc([N+](=O)[O-])c1`, the kinetic solubility was found to be 4.2 µg/mL (≈ 15.4 µM).

Consider `COc1ccc(OC)c(Nc2nc(NCCC(C)C)nc(N)c2[N+](=O)[O-])c1`, for which the kinetic solubility is less than 0.1 µg/mL.

As to `COc1ccc(N(CC(=O)N2CCCC2)S(C)(=O)=O)cc1`, the solubility (kinetic) worked out at 34.5 µg/mL (≈ 110 µM).

Molecule `O=C(c1ccccc1F)N1CCN=C1c1ccccc1` came in with a solubility (kinetic) of 36.2 µg/mL (≈ 135 µM).

`Cc1nn(C)c2ncc(C(N)=O)c(Oc3cccnc3)c12`: the kinetic solubility was greater than 42.5 µg/mL.

As for `CC1CN(CCc2ccccc2)C(C)C/C1=N/O` (stereo not drawn), the kinetic solubility came out at 32 µg/mL (≈ 130 µM).

Take `COCC1CCN(Cc2nc(-c3ccc(OC)cc3)no2)CC1`: the kinetic solubility is 41 µg/mL (≈ 129 µM).

For `O=S(=O)(O)c1cnccc1Nc1cccc(C(F)(F)F)c1`, the kinetic solubility is greater than 47.7 µg/mL.

In turn, `CC(=O)N(CCc1cccc(C)c1)Cc1cc2ccc(C)cc2[nH]c1=O` had a solubility (kinetic) of 5.1 µg/mL (≈ 14.6 µM).

Turning to `CC(C)(CNS(=O)(=O)c1cccs1)N1CCOCC1`, the solubility (kinetic) was greater than 45.7 µg/mL.

As to `CCOc1cccc(C(=O)NC(c2ccccc2)C(C)C)c1` (stereo not drawn), the solubility (kinetic) is 5.1 µg/mL (≈ 17.1 µM).

For `CC1CCCCN1C(=O)c1cc(S(=O)(=O)N2CCOCC2)ccc1Cl` (stereo not drawn), the solubility (kinetic) was greater than 58 µg/mL.

Consider `COc1ccccc1OCCNC(=O)C1CCN(C(C)=O)CC1`, for which the solubility (kinetic) was greater than 48.1 µg/mL.

For the molecule `Cc1csc(/N=C/N(C)C)c1C#N`, the kinetic solubility amounted to 28 µg/mL (≈ 145 µM).

Consider `COc1ccc(OC)c(NC(=O)Cn2cc(C=O)c3ccccc32)c1`, for which the kinetic solubility worked out at 2.5 µg/mL (≈ 7.39 µM).

Molecule `O=C(O)C1CCN(S(=O)(=O)c2ccc(Cl)s2)CC1` displayed a solubility (kinetic) greater than 46.5 µg/mL.

With `CCCCOC(=O)N1CCOCCOCCOCCOCC1`, the solubility (kinetic) was greater than 47.9 µg/mL.

In turn, `O=C(c1cccc2ccccc12)N1CCCCC1` showed a solubility (kinetic) of 34.9 µg/mL (≈ 146 µM).

On to `Cc1c(C)n(CCc2c[nH]c3ccccc23)ccc1=O`, for which the kinetic solubility worked out at 38.5 µg/mL (≈ 145 µM).

Molecule `S=C(NCc1ccccc1)NC1CCCCC1` yielded a kinetic solubility greater than 37.3 µg/mL.

Molecule `COc1ccccc1NC(=O)NC1CCS(=O)(=O)C1` (stereo not drawn) returned a kinetic solubility greater than 42.6 µg/mL.

Molecule `Cc1[nH]c2ccccc2c1SCC(=O)N1CCCCC1` returned a kinetic solubility of 40.4 µg/mL (≈ 140 µM).

`CC(Sc1cccc[n+]1[O-])C(=O)Nc1cc(Cl)c(Cl)cc1Cl` (stereo not drawn) came in with a solubility (kinetic) of 53.5 µg/mL (≈ 142 µM).

`CC(=O)N(OCc1ccc(OC(C)C)c(Cl)c1)C(C)=O` returned a kinetic solubility of 38.1 µg/mL (≈ 127 µM).

`NC(=O)CN1C(=O)NC(c2ccccc2)(c2ccccc2)C1=O` yielded a kinetic solubility greater than 46.4 µg/mL.

Consider `Cc1ccc(C(C)C)c(OCCNC(=O)c2ccccc2O)c1`, for which the kinetic solubility was less than 0.7 µg/mL.

`COc1ccc(OCC(O)CNC2CCCC2)cc1.Cl` (stereo not drawn) registered a kinetic solubility of 42.6 µg/mL.

Turning to `O=C(NCc1cccs1)c1cnc(Cl)c(Cl)c1`, the solubility (kinetic) was greater than 43.1 µg/mL.

Molecule `COc1ccccc1C(=O)NCC1(c2ccccc2)CCCC1` came in with a solubility (kinetic) of 8.1 µg/mL (≈ 26.2 µM).

Consider `CC(=O)c1ccc(NC(=O)NC2CCCc3ccccc32)cc1` (stereo not drawn), for which the kinetic solubility was determined as 4.9 µg/mL (≈ 15.9 µM).

Regarding `CCOn1c(=O)c(-c2ccc(F)cc2)[n+]([O-])c2ccccc21`, the solubility (kinetic) is 9.9 µg/mL (≈ 33 µM).

`COc1cccc(Oc2cc(Cl)nc(N)n2)c1` had a kinetic solubility of 15 µg/mL (≈ 59.6 µM).

Molecule `CCCCN(C(=O)Nc1ccccc1)C1CCS(=O)(=O)C1` (stereo not drawn) had a solubility (kinetic) greater than 46.6 µg/mL.

Molecule `COCC(C)NC(=O)COCc1cc(-c2ccc3c(c2)OCO3)on1` (stereo not drawn) yielded a solubility (kinetic) of 39 µg/mL (≈ 112 µM).

`Cc1nc(Nc2cccc(O)c2)c2oc3ccccc3c2n1` had a kinetic solubility of 2 µg/mL (≈ 6.87 µM).

`O=C(COC(=O)CN1C(=O)NC2(CCCCC2)C1=O)Nc1cc(F)ccc1F` registered a solubility (kinetic) greater than 59.3 µg/mL.

`Nc1ccc2c(c1)COC2=O`: the solubility (kinetic) is 22.2 µg/mL (≈ 149 µM).

The molecule `CC(=O)c1ccc(NC(=O)CN2CCCCCC2)cc1` came in with a solubility (kinetic) greater than 41.2 µg/mL.

As to `CCOC(=O)C1CCN(CCC(=O)Nc2ccc(C)c(C)c2)CC1`, the kinetic solubility is greater than 49.9 µg/mL.

`CC(C)Cn1c(=S)[nH]c2cc(C(=O)O)ccc2c1=O` came in with a kinetic solubility greater than 41.7 µg/mL.

Regarding `O=C(Nc1cccnc1)OC1CCCC1`, the kinetic solubility was 29.5 µg/mL (≈ 143 µM).

For `Cc1ccccc1C(=O)O/N=C(\N)Cc1cccs1`, the kinetic solubility is greater than 41.2 µg/mL.

Consider `CC(NC(=O)c1ccc(F)cc1Cl)C1CC2CCC1C2` (stereo not drawn), for which the kinetic solubility was 16.6 µg/mL (≈ 56.1 µM).
